For experiment [1], the system named is INS-1 cells. As to the kind of experiment: Stimulation test of insulin secretion by INS-1 cells. It counts as cell-based. Particulars: Rattus norvegicus, INS1, 1 h, insulin secretion by INS-1 cells in response to glucose; for insulin secretion, % of control at 10 µM: read-out: HGP % of ctrl @ 10 μM; for insulin secretion, % of control at 50 µM: read-out: HGP % of ctrl @ 50 μM. The procedure:
The different compounds were tested on an INS-1 beta-pancreatic line in order to evaluate their capability of potentializing the insulin secretion in response to glucose. Very briefly, the cells are cultivated in a culture medium, RPMI 1640 with 10 mM glucose containing 1 mM of sodium pyruvate, 50 μM of 2-mercaptoethanol, 2 mM of glutamine, 10 mM of HEPES, 100 IU/ml of penicillin, 100 μg/ml of streptomycin and 10% of inactivated fetal calf serum, as described by Asfari et al.. For the insulin secretion test, the INS-1 cells are sown and cultivated in 96-well plates. After 3 days of cultivation at 37° C. in a humid atmosphere (95% air/5% CO2), the medium is removed and the cells are incubated for 16 h in a medium containing 5 mM of glucose and 1% of inactivated fetal calf serum. On the day of the test, the cells are washed with a Krebs buffer (pH 7.4) containing 0.1% of bovine albumin and then pre-incubated for 30 min at 37° C. in this same buffer containing 2.8 mM of glucose. Finally, the cells are again washed with Krebs buffer and then incubated for 1 h in the buffer of the secretion test (Krebs, pH 7.4 containing 0.1% of bovine albumin and 3.5 mM of glucose and molecules to be evaluated). At the end of the test, the cell supernatant is recovered in order to measure therein the secreted insulin, by means of an ELISA kit using a rat anti-insulin antibody (ELISA Alpco Cat no. 80-INSRTH-E10). Each condition is tested in triplicate. The 3.5 mM glucose, the 10^−7M GLP-1 and the Forskoline 10^−7/IBMX 10^−5M mixtures are used as positive controls of the test. A compound stimulates the secretion of insulin if this factor is greater than or equal to 130% of the control for a given glucose dose.

Experiment [2] concerns isolated rat hepatocytes. The experiment in a line: Hepatic production of glucose, 3 h incubation. Particulars: for activity at 50 µM / activity at 100 µM: Hepatocyte, rat hepatocytes; for activity at 50 µM: read-out: HGP % of ctrl @ 50 μM; for activity at 100 µM: read-out: HGP % of ctrl @ 100 μM. It counts as cell-based, Wistar rat. The procedure:
The hepatocytes are isolated from Wistar rat liver having fasted for 24 h after perfusion of collagenase in the portal vein. 1) The freshly isolated hepatocytes are sown in 6-well plates coated with collagen and containing an adhesion medium (Williams Medium). After adhesion, the medium is replaced with RPMI 1640 medium without any glucose, containing hydrocortisone (7·10^−5M) for a duration from 16 to 18 h. The next day, the glucose hepatic production test is conducted in a Krebs medium for 3 h. The basal conditions are cells incubated with only Krebs, the stimulated conditions are the cells placed in Krebs+lactate+pyruvate, the produced conditions are the cells exposed to chemical compounds in a Krebs/lactate/pyruvate medium. In the case when the compounds are dissolved in DMSO, all the conditions of the tests are met in the presence of a final concentration of 0.1% DMSO. The positive control of the test is the mercaptopicolinate known for its inhibitory action on hepatic production of glucose via the phosphoenolpyruvate carboxykinase. For short term treatments, the compounds are incubated for 3 h. For long term treatments, the compounds are incubated for 20 h at the moment when the hepatocytes are cultivated in RPMI and then added during the hepatic production test for 3 h. At the end of the 3 hours of incubation, the supernatant is recovered for measurement of glucose with a colorimetric method using glucose oxidase. The cells are lysed with a 0.1% NaOH aqueous solution in order to measure the amount of protein with the Lowry method. The results are expressed in mmol of glucose per mg of protein.

The results in this text go back to patent US9381191B2, “Imidazopyridine derivatives useful in treating diabetes” (METABRAIN RESEARCH, priority 2012, dated 2016).

In the case of `CCOC(=O)CSCc1nc2ccc(Cl)cn2c1C#Cc1cccc(C(F)(F)F)c1` [Derivative 111, ethyl 2-[[6-chloro-3-[2-[3-(trifluoro-methyl)phenyl]ethynyl]imidazo [1,2-a]pyridin-2-yl]methylsulfanyl]acetate], in experiment [1], the insulin secretion, % of control at 10 µM stood at 136% and the insulin secretion, % of control at 50 µM is 173%. Also, in experiment [2], the activity at 50 µM turned out to be 73% and the activity at 100 µM is 27%. Further, the “inhibition of hepatic production of glucose” value (“inhibition” below) in experiment [2] (dose of 100 μM) is on record as “strongest inhibitions”.
On to `COC(=O)c1ccccc1OCc1nc2ccccn2c1C#Cc1ccccc1` [Derivative 78, methyl 2-((3-(phenylethynyl)-imidazo[1,2-a]pyridin-2-yl)methoxy)benzoate], for which, in experiment [1], the insulin secretion, % of control at 10 µM turned out to be 197% and the insulin secretion, % of control at 50 µM was 152%. Moreover, in experiment [2], the activity at 50 µM was 51% and the activity at 100 µM is 44%. For the same molecule, the “inhibition” value in experiment [2] (with two doses) is reported as “strongest inhibitions”.
Turning to `O=C([O-])c1ccccc1OCc1nc2ccccn2c1C#Cc1ccccc1.[Na+]` [Derivative 92, sodium 2-((3-(phenylethynyl)imidazo-[1,2-a]pyridin-2-yl)methoxy)-benzoate], in experiment [1], the insulin secretion, % of control at 10 µM was found to be 135% and the insulin secretion, % of control at 50 µM amounted to 211%. For the same molecule, in experiment [2], the activity at 50 µM amounted to 58% and the activity at 100 µM amounted to 39%. For the same molecule, in experiment [2] (with two doses), the “inhibition” value is “strongest inhibitions”.
Taken in the same sequence, the figures for `COC(=O)c1cccc(OCc2nc3ccccn3c2C#Cc2ccccc2)c1` [Derivative 87, methyl 3-((3-(phenylethynyl)-imidazo[1,2-a]pyridin-2-yl)methoxy)benzoate] were 182%, 167%, 43%, 25% and “strongest inhibitions”.
In the case of `CCOC(=O)COCc1nc2ccccn2c1C#Cc1ccccc1` [Derivative 1, ethyl 2-((3-(phenylethynyl)-imidazo[1,2-a]pyridin-2-yl)-methoxy)acetate], in experiment [1], the insulin secretion, % of control at 10 µM was 121% and the insulin secretion, % of control at 50 µM stood at 211%. In experiment [2], the activity at 50 µM is 70% and the activity at 100 µM was 56%.
Consider `CCOC(=O)COCc1nc2ccccn2c1C#Cc1ccccc1F` [Derivative 25, ethyl 2-((3-((2-fluorophenyl)-ethynyl)imidazo[1,2-a]pyridin-2-yl)methoxy)acetate], for which, in experiment [1], the insulin secretion, % of control at 10 µM was 134% and the insulin secretion, % of control at 50 µM was found to be 226%. Besides, in experiment [2], the activity at 50 µM amounted to 83% and the activity at 100 µM was 73%.
As for `CCOC(=O)COCc1nc2ccccn2c1C#Cc1ccccc1C(F)(F)F` [Derivative 26, ethyl 2-((3-((2-(trifluoromethyl)-phenyl)ethynyl)imidazo[1,2-a]pyridin-2-yl)methoxy)acetate], in experiment [1], the insulin secretion, % of control at 10 µM turned out to be 138% and the insulin secretion, % of control at 50 µM was 246%. Further, in experiment [2], the activity at 50 µM was 78% and the activity at 100 µM turned out to be 67%.
Regarding `CCOC(=O)CSCc1nc2ccc(Cl)cn2c1C#Cc1ccc(F)cc1` [Derivative 110, ethyl 2-[[6-chloro-3-[2-[4-(fluoro)-phenyl]ethynyl]imidazo[1,2-a]pyridin-2-yl]methylsulfanyl]acetate], in experiment [1], the insulin secretion, % of control at 10 µM was found to be 162% and the insulin secretion, % of control at 50 µM worked out at 140%. In experiment [2], the activity at 50 µM was determined as 50% and the activity at 100 µM came out at 37%. Further, the “inhibition” value in experiment [2] (with two doses) is recorded as “strongest inhibitions”.
Taken in the same sequence, the figures for `O=C(O)CSCc1nc2ccc(Cl)cn2c1C#Cc1ccc(F)cc1` [Derivative 117, 2-[[6-chloro-3-[2-(4-fluorophenyl)ethynyl]imidazo [1,2-a]pyridin-2-yl]methylsulfanyl]acetic acid] were 130%, 137%, 55%, 43% and “strongest inhibitions”.
As to `CCOC(=O)COCc1nc2ccccn2c1C#Cc1ccc(F)cc1` [Derivative 3, ethyl 2-((3-((4-fluorophenyl)-ethynyl)imidazo[1,2-a]pyridin-2-yl)methoxy)acetate], in experiment [1], the insulin secretion, % of control at 10 µM came to 130% and the insulin secretion, % of control at 50 µM is 472%. In addition, in experiment [2], the activity at 50 µM amounted to 73% and the activity at 100 µM amounted to 60%.
Taken in the same sequence, the figures for `CCOC(=O)COCc1nc2ccccn2c1C#Cc1cccc(C#N)c1` [Derivative 14, ethyl 2-((3-((3-cyanophenyl)-ethynyl)imidazo[1,2-a]pyridin-2-yl)methoxy)acetate] were 100%, 242%, 86% and 73%.
On to `COC(=O)c1cccc(OCc2nc3ccccn3c2C#Cc2cccc(C(F)(F)F)c2)c1` [Derivative 81, methyl 3-((3-((3-(trifluoromethyl)-phenyl)ethynyl)imidazo[1,2-a]pyridin-2-yl)methoxy)benzoate], for which, in experiment [1], the insulin secretion, % of control at 10 µM was determined as 142% and the insulin secretion, % of control at 50 µM amounted to 134%. In addition, in experiment [2], the activity at 50 µM was determined as 76% and the activity at 100 µM was 47%. In addition, the “inhibition” value in experiment [2] (dose of 100 μM) was “strongest inhibitions”.
Taken in the same sequence, the figures for `COC(=O)c1ccccc1OCc1nc2ccccn2c1C#Cc1ccc(F)cc1` [Derivative 76, methyl 2-((3-((4-fluorophenyl)-ethynyl)imidazo[1,2-a]pyridin-2-yl)methoxy)benzoate] were 156%, 202%, 67%, 59% and “strongest inhibitions”.
The like results for `O=C(COCc1nc2ccccn2c1C#Cc1ccc(F)cc1)NO` [Derivative 59, 2-((3-((4-fluorophenyl)ethynyl)-imidazo[1,2-a]pyridin-2-yl)methoxy)-N-hydroxy acetamide] were, in that order, 134%, 220%, 97%, 45% and “strongest inhibitions”.
Taken in the same sequence, the figures for `O=C(O)c1ccccc1OCc1nc2ccccn2c1C#Cc1ccc(F)cc1` [Derivative 88, 2-((3-((4-fluorophenyl)ethynyl)-imidazo[1,2-a]pyridin-2-yl)methoxy)benzoic acid] were 138%, 263%, 67%, 50% and “strongest inhibitions”.
For the molecule `CCOC(=O)CSCc1nc2ccc(Cl)cn2c1C#Cc1cccc(OC(F)(F)F)c1` [Derivative 112, ethyl 2-[[6-chloro-3-[2-[3-(trifluoromethoxy)phenyl]ethynyl]imidazo[1,2-a]pyridin-2-yl]methylsulfanyl]acetate], in experiment [1], the insulin secretion, % of control at 10 µM was found to be 150% and the insulin secretion, % of control at 50 µM was determined as 256%. Moreover, in experiment [2], the activity at 50 µM came to 65% and the activity at 100 µM was determined as 26%. The “inhibition” value in experiment [2] (dose of 100 μM) was “strongest inhibitions”.
